According to patent US9820483B2, “Microbial composition” (Rohm and Haas Company, priority 2011, dated 2017):

Columns and labels:
[1] = system: Escherichia coli (E. coli—ATCC #10536); experiment: Automated assessment of efficacy in model surfactant base (2.85% sodium cocoyl glycinate + 1.85% sodium lauroamphoacetate, pH 10), 15 seconds exposure, delta OD450/OD590 in D/E quench; format: cell-based
Description: Solutions were prepared such that the concentrations of the surfactant components and test actives were 1.1× the final desired concentration in order to allow for dilution with the bacterial inoculum in the test. The solutions were manually adjusted to pH 10.0 by dropwise addition of sodium hydroxide solution, as measured with a pH meter at ambient temperature.
Tests were conducted using standard microtiter plate assays using an automated liquid handling system. 270 μl of the surfactant test solution was pipetted into each well of the microtitre plate and 30 μl of the bacterial suspension was then added. After exactly 15 seconds of bacterial exposure, a 30 μl volume of bacterial cells was withdrawn and transferred to 270 μl of D/E quench solution. After 5 minutes in the D/E quench, the optical density (OD) was measured for each plate in turn at two specific wavelengths (450 nm and 590 nm). These provide a dual check of antimicrobial activity, as the OD450 reading is specific for the yellow colour of D/E quench when bacterial growth is observed, whereas OD590 is specific for the initial purple colour of the D/E quench which is retained if no bacterial growth is observed. After the time zero OD measurements, plates were then incubated at 37° C. overnight (16 hours) before repeating the OD measurements. Delta OD values were calculated by subtracting […]. Bacterial growth is observed as an increase in OD450 and a decrease in ΔOD590. To identify antibacterially efficacious systems (those preventing appreciable bacterial growth after incubation), the following threshold changes in OD readings have been adopted: if (1). OD450 increases by less than 0.2 absorbance unit on incubation and (2). OD590 decreases by less than 0.35 unit on incubation. Conversely, where OD450 increases by more than 0.2 AU and OD590 decreases by more than 0.35 unit after incubation, corresponding to a colour shift from purple to yellow, the test system allows bacterial growth and is not deemed efficacious. Four replicate measurements in the same plate have been made for each test system. The number of replicate wells showing either bacterial growth or no growth is also readily assessed by eye by following the colour change.
Dose responses for individual components and binary mixtures of actives at a fixed concentration ratio were generated by sequential dilution of liquors with further surfactant solution to obtain a series of endpoints.
In some selected cases, the combinations were also tested at the weight ratio 1:1.
The method used was the same as in the above Table.

E. coli ATCC #10536 = experiment: Synergy test: high resolution MBC microtiter plate assay in phosphate buffer containing 35% dipropylene glycol, 15 seconds contact; format: cell-based, Escherichia coli; settings: for MBC of the component acting alone (QA or QB; Qa or Qb with the other component at 0): E. coli 10536, complete kill in 15 seconds, phosphate buffer with 35% DPG
Excerpt: One measure of synergy is the industrially accepted method described by Kull, F. C.; Eisman. P. C.; Sylwestrowicz, H. D. and Mayer, R. L., in Applied Microbiology 9:538-541 (1961), using the ratio determined by the formula: Qa/QA÷Qb/QB=Synergy Index (“SI”) wherein: QA=concentration of compound A (first component) in percent, acting alone, which produced an end point (MBC of Compound A). […]=concentration of compound A in percent, in the mixture, which produced an end point. QB=concentration of compound B (second component) in percent, acting alone, which produced an end point (MBC of Compound B). Qb=concentration of compound B in percent, in the mixture, which produced an end point.
When the sum of Qa/QA and Qb/QB is greater than one, antagonism is indicated. […] The lower the SI, the greater is the synergy shown by that particular mixture. The minimum biocidal concentration (MBC) of a microbicide is the lowest concentration tested under a specific set of conditions that provides complete kill of the tested microorganisms.
Synergy tests were conducted using standard microtiter plate assays with phosphate buffer containing 35% dipropylene glycol (DPG). In this method, a wide range of combinations of chemicals was tested by conducting high resolution MBC assays of Component (A) in the presence of various concentrations of Component (B). High resolution MBCs were determined by adding varying amounts of microbicide to one column of a microtiter plate and doing subsequent ten-fold dilutions using an automated liquid handling system to obtain a series of closely spaced endpoints. The MBC plate was inoculated one column at a time with the test microorganism. An aliquot of the inoculated well was transferred at 15 seconds to a plate containing a neutralizing agent (D/E Neutralizing Broth), mixed and held for 5 minutes before being transferred to a growth plate containing trypticase soy broth (TSB). The TSB plate was incubated at 37° C. and read for the presence/absence of growth at 24 hours. The lowest level tested that provided complete kill (as evidenced by no growth in the microtitre plate) of the test organisms in 15 seconds is the minimum biocidal concentration (MBC).
The synergy of the combinations of the present invention was determined against a bacterium, Esherichia coli (E. coli—ATCC #10536), at a concentration of approximately 1×10^8 bacteria per mL. This microorganism is representative of natural contaminants in many consumer and industrial applications.

| SMILES | Δ OD 590 nm = OD590 (time = 16 hours) − OD590 (time zero), Mean ([1]; single active at […] w/v) | ΔOD 450 nm = OD450 (time = 16 hours) − OD450 (time zero), Mean ([1]; single active at […] w/v) | MBC of the component acting alone (QA or QB; Qa or Qb with the other component at 0) (E. coli ATCC #10536) | Δ OD 590 nm = OD590 (time = 16 hours) − OD590 (time zero), Mean ([1]; single active at 0.1% w/v) | No. of replicates showing growth (out of 4) ([1]; single active at 0.2% w/v) | Δ OD 590 nm = OD590 (time = 16 hours) − OD590 (time zero), Mean ([1]; single active at 0.2% w/v) | ΔOD 450 nm = OD450 (time = 16 hours) − OD450 (time zero), Mean ([1]; single active at 0.2% w/v) | other results |
| --- | --- | --- | --- | --- | --- | --- | --- | --- |
| CCC1CCC(C(CO)CO)CC1 (centres unmarked) | 0.56 | −0.54 |  |  |  |  |  | No. of replicates showing growth (out of 4) ([1]; single active at 0.4% w/v): 4; Δ OD 590 nm = OD590 (time = 16 hours) − OD590 (time zero), Mean ([1]; single active at 0.4% w/v): 0.56; ΔOD 450 nm = OD450 (time = 16 hours) − OD450 (time zero), Mean ([1]; single active at 0.4% w/v): −0.49; No. of replicates showing growth (out of 4) ([1]; single active at 0.5% w/v): 4; Δ OD 590 nm = OD590 (time = 16 hours) − OD590 (time zero), Mean ([1]; single active at 0.5% w/v): 0.590; ΔOD 450 nm = OD450 (time = 16 hours) − OD450 (time zero), Mean ([1]; single active at 0.5% w/v): −0.48; No. of replicates showing growth (out of 4) ([1]; single active at […] w/v): 4 |
| CCCC(=O)OC(C)(C)C1CC=C(C)CC1 (centres unmarked) [2-(4-methylcyclohex-3-enyl)propan-2-yl butyrate] |  |  | 2.4 weight % |  |  |  |  |  |
| CCCC1CCC(C(CO)CO)CC1 [2-((1S,4R)-4-propylcyclohexyl)propane-1,3-diol] |  |  | 2.5 weight % |  |  |  |  |  |
| CC[C@H]1CC[C@H](C(CO)CO)CC1 [2-(trans-4-ethylcyclohexyl)propane-1,3-diol] |  |  |  |  |  |  |  | MBC ([1]; Escherichia coli, ATCC10536, 15 s, in 2.85% sodium cocoyl glycinate + 1.85% sodium lauroamphoacetate solution at pH 10, E. coli, read-out: MBC): > 2000 µg/mL |
| CCC(C)c1ccccc1O (centres unmarked) [2-sec-butylphenol] | 0.50 | −0.41 | 0.3 weight % | 0.36 |  |  |  | Δ OD 590 nm = OD590 (time = 16 hours) − OD590 (time zero), Mean ([1]; single active at 0.05% w/v): 0.30; ΔOD 450 nm = OD450 (time = 16 hours) − OD450 (time zero), Mean ([1]; single active at 0.05% w/v): −1.50 |
| CC(C)(C)c1ccccc1O [2-tert-butylphenol] |  |  |  | 0.23 | 0 | 0.07 | −0.04 | Δ OD 590 nm = OD590 (time = 16 hours) − OD590 (time zero), Mean ([1]; single active at 0.05% w/v): 0.22; No. of replicates showing growth (out of 4) ([1]; single active at 0.1% w/v): 4; ΔOD 450 nm = OD450 (time = 16 hours) − OD450 (time zero), Mean ([1]; single active at 0.1% w/v): −1.55; Δ OD 590 nm = OD590 (time = 16 hours) − OD590 (time zero), Mean ([1]; single active at 0.125% w/v): 0.30 |
| Cc1cc(O)cc(C(C)C)c1 [3-isopropyl-5-methylphenol] |  |  | 0.3 weight % |  |  |  |  |  |
| CCCc1cccc(O)c1 [3-n-propylphenol] | 0.56 | −0.63 |  |  | 4 | 0.56 | −0.57 | No. of replicates showing growth (out of 4) ([1]; single active at 0.125% w/v): 4; Δ OD 590 nm = OD590 (time = 16 hours) − OD590 (time zero), Mean ([1]; single active at 0.125% w/v): 0.57; ΔOD 450 nm = OD450 (time = 16 hours) − OD450 (time zero), Mean ([1]; single active at 0.125% w/v): −0.59 |
| CC(C)(C)c1cccc(O)c1 [3-tert-butylphenol] |  |  | 0.3 weight % |  |  | 0.64 | −0.47 | Δ OD 590 nm = OD590 (time = 16 hours) − OD590 (time zero), Mean ([1]; single active at 0.125% w/v): 0.65; ΔOD 450 nm = OD450 (time = 16 hours) − OD450 (time zero), Mean ([1]; single active at 0.125% w/v): −0.45 |
| Cc1cc(O)ccc1C(C)C [4-isopropyl-3-methylphenol] |  |  | 0.3 weight % | 0.24 | 4 | 0.36 | −1.41 | Δ OD 590 nm = OD590 (time = 16 hours) − OD590 (time zero), Mean ([1]; single active at 0.05% w/v): 0.25; ΔOD 450 nm = OD450 (time = 16 hours) − OD450 (time zero), Mean ([1]; single active at 0.05% w/v): −1.52; ΔOD 450 nm = OD450 (time = 16 hours) − OD450 (time zero), Mean ([1]; single active at 0.1% w/v): −1.50 |
| CCCCc1ccc(O)cc1 [4-n-butylphenol] | 0.54 | −0.61 |  | 0.53 |  | 0.58 | −0.54 | ΔOD 450 nm = OD450 (time = 16 hours) − OD450 (time zero), Mean ([1]; single active at 0.1% w/v): −0.61 |
| CCCc1ccc(O)cc1 [4-propylphenol] |  |  |  | 0.34 |  | 0.43 | −1.49 |  |
| CCC(C)c1ccc(O)cc1 (centres unmarked) [4-sec-butylphenol] | 0.60 | −0.53 | 0.2 weight % |  | 4 | 0.59 | −0.56 | Δ OD 590 nm = OD590 (time = 16 hours) − OD590 (time zero), Mean ([1]; single active at 0.125% w/v): 0.60; ΔOD 450 nm = OD450 (time = 16 hours) − OD450 (time zero), Mean ([1]; single active at 0.125% w/v): −0.56 |
| Cc1ccc(C(C)C)cc1O [5-isopropyl-2-methylphenol] | 0.64 | −0.52 |  |  | 4 | 0.62 | −0.52 | SI (Synergy Index) (E. coli ATCC #10536): 1.00; No. of replicates showing growth (out of 4) ([1]; single active at 0.125% w/v): 4; Δ OD 590 nm = OD590 (time = 16 hours) − OD590 (time zero), Mean ([1]; single active at 0.125% w/v): 0.63; ΔOD 450 nm = OD450 (time = 16 hours) − OD450 (time zero), Mean ([1]; single active at 0.125% w/v): −0.50; No. of replicates showing growth (out of 4) ([1]; single active at […] w/v): 4 |
| C=C(C)[C@@H]1CC[C@@H](C)C[C@H]1O [(1R,2S,5R)-5-methyl-2-(prop-1-en-2-yl)cyclohexanol] |  |  | 0.5 weight % |  |  |  |  |  |
| CC(=O)O[C@H]1C[C@H](C)CC[C@H]1C(C)C [(1S,2S,5R)-2-isopropyl-5-methylcyclohexyl acetate] |  |  | 2.4 weight % |  |  |  |  |  |
| C/C=C/c1ccccc1O [(E)-2-(prop-1-enyl)phenol] | 0.58 | −0.57 |  | 0.59 | 4 | 0.63 | −0.53 | No. of replicates showing growth (out of 4) ([1]; single active at 0.1% w/v): 4; ΔOD 450 nm = OD450 (time = 16 hours) − OD450 (time zero), Mean ([1]; single active at 0.1% w/v): −0.60; No. of replicates showing growth (out of 4) ([1]; single active at […] w/v): 4 |
